# Results as given in patent US20230374038A1, “MODULATORS OF CYSTIC FIBROSIS TRANSMEMBRANE CONDUCTANCE REGULATOR” (VERTEX PHARMACEUTICALS INCORPORATED, priority 2020, published 2023).
# Biological target: T1, CFTR (Homo sapiens, UniProt P13569, DEL508-508)
# T1 construct: endogenous in cells; host or cells: primary human bronchial epithelial cells, F508del/MF genotype
# Test: HBE Assay: Ussing chamber assay of CFTR-mediated short-circuit currents in F508del/MF-HBE cells with 1 μM Ivacaftor
# Format: cell-based
# Settings: range of concentrations with 1 μM Ivacaftor, 18-24 hours, 20% human serum
# Outline: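 F508del/MF-HBE cells at air-liquid interface >14 days were incubated 18-24 h at 37° C with corrector (concentration range or fixed 10 μM) plus 1 μM Ivacaftor in 20% human serum, compounds kept throughout. Ussing chamber, Vhold=0 mV, 37° C, apical amiloride 30 μM; ISC (μA/cm^2) from peak 20 μM forskolin response to steady state after CFTR inhibitor cocktail.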
# T1 sequence (P13569 with tags, fused parts or gaps DEL508-508): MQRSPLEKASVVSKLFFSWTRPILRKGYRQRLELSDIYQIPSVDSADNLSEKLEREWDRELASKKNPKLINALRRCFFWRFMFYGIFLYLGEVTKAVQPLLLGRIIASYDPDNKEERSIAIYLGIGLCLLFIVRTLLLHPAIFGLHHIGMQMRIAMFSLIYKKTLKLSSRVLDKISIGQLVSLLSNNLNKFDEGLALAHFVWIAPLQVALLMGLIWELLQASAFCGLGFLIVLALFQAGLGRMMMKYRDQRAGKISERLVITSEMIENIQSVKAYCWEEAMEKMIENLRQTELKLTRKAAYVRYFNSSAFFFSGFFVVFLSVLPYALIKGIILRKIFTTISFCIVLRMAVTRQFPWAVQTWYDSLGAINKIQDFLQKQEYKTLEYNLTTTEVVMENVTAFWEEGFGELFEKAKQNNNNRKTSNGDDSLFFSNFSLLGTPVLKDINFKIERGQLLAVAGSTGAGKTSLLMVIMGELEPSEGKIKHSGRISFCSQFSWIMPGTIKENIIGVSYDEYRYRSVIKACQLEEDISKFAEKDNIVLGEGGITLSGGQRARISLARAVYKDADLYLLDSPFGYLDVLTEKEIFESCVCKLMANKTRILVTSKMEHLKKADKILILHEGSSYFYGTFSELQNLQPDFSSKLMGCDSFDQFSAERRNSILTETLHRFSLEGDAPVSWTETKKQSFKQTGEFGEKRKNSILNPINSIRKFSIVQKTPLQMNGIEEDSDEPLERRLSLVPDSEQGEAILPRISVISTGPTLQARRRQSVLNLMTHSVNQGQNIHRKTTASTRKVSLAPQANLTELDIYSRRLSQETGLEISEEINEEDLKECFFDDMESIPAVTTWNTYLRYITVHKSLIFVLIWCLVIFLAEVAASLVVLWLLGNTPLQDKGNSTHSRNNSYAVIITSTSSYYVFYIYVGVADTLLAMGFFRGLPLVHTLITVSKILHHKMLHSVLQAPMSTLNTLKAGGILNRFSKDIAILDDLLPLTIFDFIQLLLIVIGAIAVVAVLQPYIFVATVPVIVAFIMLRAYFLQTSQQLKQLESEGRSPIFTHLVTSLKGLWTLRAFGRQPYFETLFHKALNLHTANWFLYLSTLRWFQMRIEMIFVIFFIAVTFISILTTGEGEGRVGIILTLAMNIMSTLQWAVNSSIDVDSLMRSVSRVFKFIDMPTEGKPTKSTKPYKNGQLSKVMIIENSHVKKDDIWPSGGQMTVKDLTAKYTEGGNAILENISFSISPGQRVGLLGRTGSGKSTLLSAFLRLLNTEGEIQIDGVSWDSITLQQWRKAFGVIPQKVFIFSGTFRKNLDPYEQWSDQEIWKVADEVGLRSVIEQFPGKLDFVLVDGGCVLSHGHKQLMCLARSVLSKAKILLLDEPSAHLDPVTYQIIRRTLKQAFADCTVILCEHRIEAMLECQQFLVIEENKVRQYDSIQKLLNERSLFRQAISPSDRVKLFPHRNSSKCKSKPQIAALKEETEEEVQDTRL
row,EC50 [nM],SMILES
1,< 1000,Cc1cccc(C)c1-c1nc2nc(c1F)OC[C@@H](CC(C)C)N(Cc1ncc(N3CCC(C)(C)C3)cn1)C(=O)c1cccc(c1)S(=O)(=O)N2 [Compound 342]
2,< 1000,COc1c2nc(nc1-c1c(C)cccc1C)NS(=O)(=O)c1cccc(c1)C(=O)N(Cc1ncc(OC3CCC3)cn1)[C@H](CC(C)C)CO2 [Compound 349]
3,< 1000,Cc1cccc(C)c1-c1nc2nc(c1F)OC[C@@H](CC(C)(C)C)N(Cc1ncc(N3CCC(C)(C)C3)cn1)C(=O)c1cccc(c1)S(=O)(=O)N2 [Compound 341]
4,< 1000,Cc1cccc(C)c1-c1nc2nc(c1F)OC[C@@H](CC(C)C)N(Cc1ncc(OC(C)C)cn1)C(=O)c1cccc(c1)S(=O)(=O)N2 [Compound 337]

# Same assay, conditions: single fixed concentration of 10 μM, with 1 μM Ivacaftor, 20% human serum
row,SMILES,HBE Activity at 10 μM
1,"Cc1cccc(CC2CCOCC2)c1-c1nc2nc(c1C)OC[C@@H](CC(C)(C)C)N(Cc1ncc(N3CCOCC3)cn1)C(=O)c1cccc(c1)S(=O)(=O)N2 (atropisomer, axis not shown; (M)) [Compound 217, (5M,11R)-11-(2,2-dimethylpropyl)-7-methyl-6-{2-methyl-6-[(oxan-4-yl)methyl]phenyl}-12-{[5-(morpholin-4-yl)pyrimidin-2-yl]methyl}-9-oxa-2λ^6-thia-3,5,12,19-tetraazatricyclo[12.3.1.14,8]nonadeca-1(17),4(19),5,7,14(18),15-hexaene-2,2,13-trione]",++ (++ is 30-60%)
2,"Cc1cccc(COC(C)C)c1-c1nc2nc(c1C)OC[C@@H](CC(C)(C)C)N(Cc1nccc(N(C)C(C)C)n1)C(=O)c1cccc(c1)S(=O)(=O)N2 (atropisomer, axis not shown) [Compound 229]",+++ (+++ is >600%)
3,"Cc1cccc(CC2CCCC2)c1-c1nc2nc(c1C)OC[C@@H](CC(C)(C)C)NC(=O)c1cccc(c1)S(=O)(=O)N2 (atropisomer, axis not shown) [Compound 225]",+++ (+++ is >600%)
4,"Cc1cccc(COC(C)C)c1-c1nc2nc(c1C)OC[C@@H](CC(C)(C)C)N(Cc1ncc(N3CCC(C)(C)C3)cn1)C(=O)c1cccc(c1)S(=O)(=O)N2 (atropisomer, axis not shown; (M)) [Compound 220, (5M,11R)-11-(2,2-dimethylpropyl)-12-{[5-(3,3-dimethylpyrrolidin-1-yl)pyrimidin-2-yl]methyl}-7-methyl-6-{2-methyl-6-[(propan-2-yloxy)methyl]phenyl}-9-oxa-2λ^6-thia-3,5,12,19-tetraazatricyclo[12.3.1.14,8]nonadeca-1(17),4(19),5,7,14(18),15-hexaene-2,2,13-trione]",++ (++ is 30-60%)

# More lines, now with the values ahead:
row,HBE Activity at 10 μM,SMILES
1,+++ (+++ is >600%),"COCCN(C)c1cnc(CN2C(=O)c3cccc(c3)S(=O)(=O)Nc3nc(c(C)c(-c4c(C)cccc4CC(C)C)n3)OC[C@H]2CC(C)(C)C)nc1 (atropisomer, axis not shown) [Compound 293]"
2,+++ (+++ is >600%),"Cc1cccc(CC2CCCCC2)c1-c1nc2nc(c1C(F)(F)F)OC[C@@H](CC(C)(C)C)N(Cc1ccc(N3CCOCC3)cn1)C(=O)c1cccc(c1)S(=O)(=O)N2 (atropisomer, axis not shown) [Compound 248]"
3,+++ (+++ is >600%),"Cc1cccc(CC2CCOCC2)c1-c1nc2nc(c1C)OC[C@@H](CC(C)(C)C)N(Cc1ncc(N3CCC(C)(C)C3)cn1)C(=O)c1cccc(c1)S(=O)(=O)N2 (atropisomer, axis not shown) [Compound 271]"
4,+++ (+++ is >600%),"Cc1cccc(CC(C)C)c1-c1nc2nc(c1C)OC[C@@H](CC(C)C)N(Cc1cnc(C3CCOCC3)cn1)C(=O)c1cccc(c1)S(=O)(=O)N2 (atropisomer, axis not shown) [Compound 315]"

# Same assay, conditions: with 1 μM Ivacaftor, 18-24 hours, 20% human serum
SMILES,EC50 [nM],HBE Max Activity
"Cc1cccc(CC(C)C)c1-c1nc2nc(c1C(F)(F)F)OC[C@@H](CC(C)(C)C)N(Cc1ncc(N3CCOCC3)cn1)C(=O)c1cccc(c1)S(=O)(=O)N2 (single isomer, unassigned) [Compound 212]",< 1000,+++ (+++ is >600%)
"Cc1cccc(CC(C)C)c1-c1nc2nc(c1C)OC[C@@H](CC(C)(C)C)N(Cc1cccc(N(C)C(C)C)n1)C(=O)c1cccc(c1)S(=O)(=O)N2 (atropisomer, axis not shown) [Compound 235]",< 1000,+++ (+++ is >600%)
Cc1cccc(C)c1-c1nc2nc(c1C)OC[C@@H](CC(C)(C)C)N(Cc1ncc(N3CCC(C)(C)C3)cn1)C(=O)c1cccc(c1)S(=O)(=O)N2 [Compound 191],< 1000,+++ (+++ is >600%)
Cc1cccc(C)c1-c1nc2nc(c1C)OC[C@@H](CC(C)C)N(Cc1ncc(N3CCC(C)(C)CC3)cn1)C(=O)c1cccc(c1)S(=O)(=O)N2 [Compound 198],< 1000,+++ (+++ is >600%)
"Cc1cccc(CC2CCCCC2)c1-c1nc2nc(c1C)OC[C@@H](CC(C)(C)C)N(Cc1ccc(N3CCOCC3)cn1)C(=O)c1cccc(c1)S(=O)(=O)N2 (single isomer, unassigned) [Compound 207]",< 1000,+++ (+++ is >600%)

# Continued, values first:
EC50 [nM],HBE Max Activity,SMILES
< 1000,+++ (+++ is >600%),"Cc1cccc(CC2CCCCC2)c1-c1nc2nc(c1C)OC[C@@H](CC(C)(C)C)N(Cc1ccc(N3CCCCC3)cn1)C(=O)c1cccc(c1)S(=O)(=O)N2 (atropisomer, axis not shown) [Compound 308]"
< 1000,+++ (+++ is >600%),"Cc1cccc(CC2CCCCC2)c1-c1nc2nc(c1C)OC[C@@H](CC(C)(C)C)N(Cc1cccc(N(C(C)C)C(C)C)n1)C(=O)c1cccc(c1)S(=O)(=O)N2 (atropisomer, axis not shown) [Compound 256]"
< 1000,+++ (+++ is >600%),"Cc1cccc(CC(C)C)c1-c1nc2nc(c1C)OC[C@@H](CC(C)(C)C)N(Cc1ncc(N3CCOCC3)cn1)C(=O)c1cccc(c1)S(=O)(=O)N2 (atropisomer, axis not shown) [Compound 295]"
< 1000,+++ (+++ is >600%),"Cc1cccc(CC2CCCC2)c1-c1nc2nc(c1C)OC[C@@H](CC(C)(C)C)N(Cc1ncc(OC(C)C)cn1)C(=O)c1cccc(c1)S(=O)(=O)N2 (atropisomer, axis not shown) [Compound 266]"
< 1000,+++ (+++ is >600%),"Cc1cccc(CC(C)C)c1-c1nc2nc(c1C)OC[C@@H](CC(C)(C)C)N(Cc1ccc(N3CCOCC3)cn1)C(=O)c1cccc(c1)S(=O)(=O)N2 (atropisomer, axis not shown) [Compound 297]"

# Same assay, conditions: with 1 μM Ivacaftor, 18-24 hours, 20% human serum, compared to known Vertex corrector with 18 μM Tezacaftor and 1 μM Ivacaftor, read-out: HBE Max activity (%)
row,Emax [%],SMILES
1,> 60,Cc1cccc(C)c1-c1nc2nc(c1F)OC[C@@H](CC(C)C)N(Cc1ncc(N3CCC(C)(C)C3)cn1)C(=O)c1cccc(c1)S(=O)(=O)N2 [Compound 342]
2,> 60,COc1c2nc(nc1-c1c(C)cccc1C)NS(=O)(=O)c1cccc(c1)C(=O)N(Cc1ncc(OC3CCC3)cn1)[C@H](CC(C)C)CO2 [Compound 349]
3,> 60,Cc1cccc(C)c1-c1nc2nc(c1F)OC[C@@H](CC(C)(C)C)N(Cc1ncc(N3CCC(C)(C)C3)cn1)C(=O)c1cccc(c1)S(=O)(=O)N2 [Compound 341]
4,> 60,Cc1cccc(C)c1-c1nc2nc(c1F)OC[C@@H](CC(C)C)N(Cc1ncc(OC(C)C)cn1)C(=O)c1cccc(c1)S(=O)(=O)N2 [Compound 337]
